Measured values published in the supplement of paper PMC10307832.

What was measured:
Assay in all cases: relative viability (nuclei count vs DMSO), 5 days (fraction); higher = more cells survive
Idelalisib + Navitoclax = compound: CC[C@H](Nc1ncnc2[nH]cnc12)c1nc2cccc(F)c2c(=O)n1-c1ccccc1 [Idelalisib] + CC1(C)CCC(c2ccc(Cl)cc2)=C(CN2CCN(c3ccc(C(=O)NS(=O)(=O)c4ccc(N[C@H](CCN5CCOCC5)CSc5ccccc5)c(S(=O)(=O)C(F)(F)F)c4)cc3)CC2)C1 [Navitoclax] (partner 0.5 µM)
How it was run: (§1)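 Lung cancer cell lines were pin-tool dosed in 1536-well plates on the day after seeding, with either a lone drug or a fixed anchor-drug dose plus five library-drug doses (not always all listed) in √10 steps. Nuclei were counted on 4× images after 5 days. Relative viability is the ratio of treated-well to vehicle-well nuclei counts, with each value a median of duplicate plates.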

Pemetrexed + Decitabine = compound: Nc1nc2[nH]cc(CCc3ccc(C(=O)N[C@@H](CCC(=O)O)C(=O)O)cc3)c2c(=O)[nH]1 [Pemetrexed] + Nc1ncn([C@H]2C[C@H](O)[C@@H](CO)O2)c(=O)n1 [Decitabine] (partner 2 µM)
How it was run: as §1

Idelalisib + Vorinostat = compound: CC[C@H](Nc1ncnc2[nH]cnc12)c1nc2cccc(F)c2c(=O)n1-c1ccccc1 [Idelalisib] + O=C(CCCCCCC(=O)Nc1ccccc1)NO [Vorinostat] (partner 1 µM)
How it was run: as §1

Idelalisib + Trametinib = compound: CC[C@H](Nc1ncnc2[nH]cnc12)c1nc2cccc(F)c2c(=O)n1-c1ccccc1 [Idelalisib] + CC(=O)Nc1cccc(-n2c(=O)n(C3CC3)c(=O)c3c(Nc4ccc(I)cc4F)n(C)c(=O)c(C)c32)c1 [Trametinib] (partner 0.02 µM)
How it was run: as §1

| Cell Line | relative viability (Idelalisib + Navitoclax; first compound 0.04 µM) | relative viability (Idelalisib + Navitoclax; first compound 0.1265 µM) | relative viability (Idelalisib + Navitoclax; first compound 0.4 µM) | relative viability (Idelalisib + Navitoclax; first compound 1.265 µM) | relative viability (Idelalisib + Navitoclax; first compound 4 µM) | relative viability (Pemetrexed + Decitabine; first compound 0.002 µM) | relative viability (Pemetrexed + Decitabine; first compound 0.006325 µM) | relative viability (Pemetrexed + Decitabine; first compound 0.02 µM) | relative viability (Pemetrexed + Decitabine; first compound 0.06325 µM) | relative viability (Pemetrexed + Decitabine; first compound 0.2 µM) | relative viability (Idelalisib + Vorinostat; first compound 0.04 µM) | relative viability (Idelalisib + Vorinostat; first compound 0.1265 µM) | relative viability (Idelalisib + Vorinostat; first compound 0.4 µM) | relative viability (Idelalisib + Vorinostat; first compound 1.265 µM) | relative viability (Idelalisib + Vorinostat; first compound 4 µM) | relative viability (Idelalisib + Trametinib; first compound 0.04 µM) | relative viability (Idelalisib + Trametinib; first compound 0.1265 µM) | relative viability (Idelalisib + Trametinib; first compound 0.4 µM) | relative viability (Idelalisib + Trametinib; first compound 1.265 µM) | relative viability (Idelalisib + Trametinib; first compound 4 µM) |
| --- | --- | --- | --- | --- | --- | --- | --- | --- | --- | --- | --- | --- | --- | --- | --- | --- | --- | --- | --- | --- |
| LU99A | 0.835 | 0.894 | 0.719 | 0.91 | 0.827 | 0.802 | 0.753 | 0.947 | 0.865 | 0.887 | 0.536 | 0.468 | 0.387 | 0.535 | 0.506 | 0.6 | 0.539 | 0.546 | 0.542 | 0.502 |
| NCI-H650 |  |  |  |  |  | 0.287 | 0.31 |  | 0.293 | 0.313 | 0.495 | 0.449 | 0.369 | 0.419 | 0.421 | 1.08 | 0.928 | 0.888 | 1.09 | 0.848 |
| NCI-H2347 | 0.89 | 0.667 | 0.737 | 0.767 | 0.618 | 0.604 | 0.594 | 0.657 | 0.619 | 0.49 | 0.639 | 0.572 | 0.511 | 0.624 | 0.403 | 0.267 | 0.282 | 0.246 | 0.278 | 0.229 |
| HARA | 1.2 | 1.11 | 1.17 | 1.16 | 1.09 | 0.486 | 0.457 | 0.659 | 0.437 | 0.234 | 0.453 | 0.504 | 0.473 | 0.574 | 0.39 | 0.78 | 0.773 |  | 0.593 | 0.671 |
| NCI-H2228 | 1.04 | 0.569 | 0.742 | 1.03 | 0.666 |  |  |  |  |  | 0.812 | 0.53 | 0.482 | 0.588 | 0.613 | 0.49 | 0.684 | 0.429 | 0.583 | 0.381 |
| EKVX | 0.863 | 0.914 | 0.876 | 0.807 | 0.853 | 0.405 | 0.257 | 0.368 | 0.316 | 0.325 | 0.726 | 0.792 | 0.676 | 0.703 | 0.399 | 0.332 | 0.406 | 0.352 | 0.334 | 0.278 |
| HCC-827 | 1.06 | 1.05 | 1.03 | 1.03 | 0.964 | 0.264 | 0.341 | 0.409 | 0.214 | 0.305 | 0.957 | 0.664 | 0.897 | 0.848 | 0.969 | 0.578 | 0.517 | 0.473 | 0.476 | 0.424 |
| NCI-H1755 | 0.964 | 0.959 | 0.923 | 0.836 | 0.687 | 0.708 | 0.738 | 0.734 | 0.693 | 0.695 | 0.884 | 0.748 | 0.751 | 0.634 | 0.723 | 0.764 | 0.773 | 0.745 | 0.674 | 0.732 |
